Structures can show the parent of a compound that is named as a salt. A value given as a limit tells only on which side of the number the result lay.

The record followed here is US6680323B2, “Dihydropyrimidines and uses thereof” (Synaptic Pharmaceutical Corporation, priority 1998, dated 2004).

One experiment concerns the target T1, human α1a receptor (Homo sapiens, UniProt P35348).
T1 construct: expressed in transfected cells
T1 sequence (P35348 1-466): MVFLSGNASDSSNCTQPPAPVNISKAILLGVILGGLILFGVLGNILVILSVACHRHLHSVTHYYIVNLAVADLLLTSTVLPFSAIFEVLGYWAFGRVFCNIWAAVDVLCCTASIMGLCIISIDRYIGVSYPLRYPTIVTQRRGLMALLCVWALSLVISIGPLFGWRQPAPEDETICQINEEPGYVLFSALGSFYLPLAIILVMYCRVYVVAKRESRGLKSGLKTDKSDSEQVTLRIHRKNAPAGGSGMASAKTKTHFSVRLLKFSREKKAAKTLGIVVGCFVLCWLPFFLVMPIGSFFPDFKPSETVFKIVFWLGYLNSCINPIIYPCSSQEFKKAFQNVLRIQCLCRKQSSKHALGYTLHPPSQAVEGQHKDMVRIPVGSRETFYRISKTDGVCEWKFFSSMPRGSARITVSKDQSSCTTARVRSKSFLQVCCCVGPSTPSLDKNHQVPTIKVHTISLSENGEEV
As to the kind of experiment: Radioligand binding ([3H]prazosin) at cloned human α1a receptor. The following applies: hα1a; membranes of transfected LM(tk−) cells, [3H]prazosin 0.5 nM; read-out: Binding affinity hα1a. The procedure: The activity of compounds at the different human receptors was determined in vitro using cultured cell lines that selectively express the receptor of interest. These cell lines were prepared by transfecting the cloned cDNA or cloned genomic DNA or constructs containing both genomic DNA and cDNA encoding the human α-adrenergic receptors as follows:
α1a Human Adrenergic Receptor
The entire coding region of α1a (1401 bp), including 400 base pairs of 5′ untranslated sequence (5′ UT) and 200 bp of 3′ untranslated sequence (3′ UT), was cloned into the KpnI site of the polylinker-modified pCEXV-3-derived eukaryotic expression vector, EXJ.RH. The construct involved ligating three partial overlapping fragments: a 5′ 0.6 kb HincII genomic clone, a central 1.8 EcoRI hippocampal cDNA clone,. and a 3′ 0.6 Kb PstI genomic clone. The hippocampal cDNA fragment overlaps with the 5′ and 3′ genomic clones so that the HincII and PstI sites at the 5′ and 3′ ends of the cDNA clone, respectively, were utilized for ligation. This full-length clone was cloned into the KpnI site of the expression vector, using the 5′ and 3′ KpnI sites of the fragment, derived from vector (i.e., pBluescript) and 31-untranslated sequences, respectively. Stable cell lines were selected as described above. The stable cell line expressing the human α1a receptor used herein was designated L-α1C (old nomenclature) and was deposited with the American Type Culture Collection, 12301 Parklawn Drive, Rockville, Md. 20852, U.S.A. under the provisions of the Budapest Treaty for the International Recognition of the Deposit of Microorganisms for the Purposes of Patent Procedure. The cell line expressing the human α1a receptor was accorded Accession No. CR 11140, on Sep. 25, 1992.
Radioligand Binding Assays for α1 Receptors
Transfected cells from culture flasks were scraped into 5 ml of 5 mM Tris-HCl, 5 mM EDTA, pH 7.5, and lysed by sonication. The cell lysates were centrifuged at 1000 rpm for 5 min at 4° C., and the supernatant was centrifuged at 30,000×g for 20 min at 4° C. The pellet was suspended in 50 mM Tris-HCl, 1 mM MgCl2, and 0.1% ascorbic acid at pH 7.5. Binding of the α1 antagonist [^3H]prazosin (0.5 nM, specific activity 76.2 Ci/mmol) to membrane preparations of LM(tk−) cells was done in a final volume of 0.25 ml and incubated at 37° C. for 20 min. Nonspecific binding was determined in the presence of 10 μM phentolamine. The reaction was stopped by filtration through GF/B filters using a cell harvester. Inhibition experiments, routinely consisting of 7 concentrations of the tested compounds, were analyzed using a non-linear regression curve-fitting computer program to obtain Ki values.

In the next experiment the target is T2, human α2b receptor (Homo sapiens, UniProt P18089).
T2 construct: expressed in transfected cells
T2 sequence (P18089 1-450): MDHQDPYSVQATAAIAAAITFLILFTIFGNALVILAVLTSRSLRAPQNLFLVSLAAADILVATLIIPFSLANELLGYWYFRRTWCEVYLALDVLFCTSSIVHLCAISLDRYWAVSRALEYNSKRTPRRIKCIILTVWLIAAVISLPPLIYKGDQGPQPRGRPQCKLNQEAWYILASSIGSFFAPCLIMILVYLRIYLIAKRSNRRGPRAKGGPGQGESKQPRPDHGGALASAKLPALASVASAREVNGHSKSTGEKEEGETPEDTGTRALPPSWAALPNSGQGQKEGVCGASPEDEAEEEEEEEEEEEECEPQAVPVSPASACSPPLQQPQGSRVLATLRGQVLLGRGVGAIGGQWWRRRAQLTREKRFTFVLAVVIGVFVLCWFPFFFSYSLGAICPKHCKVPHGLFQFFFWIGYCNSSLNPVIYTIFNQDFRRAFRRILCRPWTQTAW
As to the kind of experiment: Competition binding ([3H]rauwolscine) at cloned human α2b receptor. The note with it: transfected LM(tk−) cells, [3H]rauwolscine 0.5 nM; read-out: Binding affinity hα2b. The text has this: α2 Human Adrenergic Receptors
To determine the potency of α1 antagonists at the α2 receptors, LM(tk−) cell lines stably transfected with the genes encoding the α2a, α2b, and α2c receptors were used. The cell line expressing the α2a receptor is designated L-α2A, and was deposited on Nov. 6, 1992 under ATCC Accession No. CRL 11180. The cell line expressing the α2b receptor is designated L-NGC-α2B, and was deposited on Oct. 25, 1989 under ATCC Accession No. CRL10275. The cell line expressing the α2c receptor is designated L-α2C, and was deposited on Nov. 6, 1992 under ATCC Accession No. CRL-11181. All the cell lines were deposited with the American Type Culture Collection, 12301 Parklawn Drive, Rockville, Md. 20852, U.S.A. under the provisions of the Budapest Treaty for the International Recognition of the Deposit of Microorganisms for the Purposes of Patent Procedure. Cell lysates were prepared as described above (see Radioligand Binding Assays), and suspended in 25 mM glycylglycine buffer (pH 7.6 at room temperature). Equilibrium competition binding assay were performed using [3H]rauwolscine (0.5 nM), and nonspecific binding was determined by incubation with 10 μM phentolamine. The bound radioligand was separated by filtration through GF/B filters using a cell harvester.

Take `COCC1=C(C(=O)OC)[C@H](c2ccc(F)c(F)c2)N(C(=O)NCCCO)C(=O)N1` [Compound 1, (+)-1,2,3,6-Tetrahydro-1-(3-hydroxypropyl)carboxamido-5-methoxycarbonyl-4-methoxymethyl-6-(3,4-difluorophenyl)-2-oxo-pyrimidine]: the Ki was determined as 260 nM at human α1a receptor and 26000 nM at human α2b receptor.

In the case of `COCC1=C(C(=O)OC)[C@H](c2ccc(F)c(F)c2)N(C(=O)NCCC[n+]2ccc(-c3ccccn3)cc2)C(=O)N1` [Compound 3, 4-(2-Pyridyl)-1-{3-[5-carboxymethyl-4-methoxymethyl-2-oxo-6(S)-(3,4-difluorphenyl)-1,2,3,6-tetrahydropyrimidin-1-yl]carboxyaminopropyl}pyridinium chloride], the Ki on human α1a receptor came to 212 nM; on human α2b receptor it was 9660 nM.

`O=C(O)CCNC(=O)N1C(=O)NC2=C(C(=O)OC2)[C@@H]1c1ccc(F)c(F)c1` [Compound 9]: the Ki at human α1a receptor was greater than 500 nM; on human α2b receptor, greater than 50000 nM.

In the case of `COC(=O)C1=C(CO)NC(=O)N(C(=O)NCCCN2CCC(c3ccccn3)CC2)[C@H]1c1ccc(F)c(F)c1` [Compound 7, (+)-1,2,3,6-Tetrahydro-1-{N-[4-(2-pyridyl)piperidin-1-yl]propyl}carboxamido-5-methoxycarbonyl-4-hydroxymethyl-6-(3,4-difluorophenyl)-2-oxopyrimidine], the Ki on human α1a receptor was found to be 0.8 nM; at human α2b receptor it was 1200 nM.

Turning to `COCC1=C(C(=O)OC)[C@H](c2ccc(F)c(F)c2)N(C(=O)NCCCN2CCC(c3cccc[n+]3[O-])CC2)C(=O)N1` [Compound 2, (+)-1,2,3,6-Tetrahydro-1-{N-[4-(2-pyridyl)piperidin-1-yl]propyl}carboxamido-5-methoxycarbonyl-4-methoxymethyl-6-(3,4-difluorophenyl)-2-oxopyrimidine-pyridine-N-oxide hydrochloride], the Ki on human α1a receptor turned out to be 0.3 nM; on human α2b receptor, 8700 nM.

With `O=C1OCC2=C1C(c1ccc(F)c(F)c1)N(C(=O)NCCCN1CCC(c3ccccn3)CC1)C(=O)N2` (single isomer, unassigned; (+)) [Compound 8, (+)-1-3-{[4-(3,4-Difluorophenyl)-2,5-dioxo-1,2,5,7-tetrahydro-4H-furo[3,4-d]-pyrimidine-3-carbonyl]amino}-propyl-4-(2-pyridyl)-piperidine], the Ki on human α1a receptor turned out to be 3 nM; at human α2b receptor, 970 nM.
